In PubChem BioAssay AID1963864 (Molecular Pharmacology Branch, DTP, NCI, 2024):

System: KRAS PDC multicell spheroid viability
Test: Anticancer human tumor 521955-158-R6-J3-PDC patient-derived pancreatic carcinoma cell line growth inhibition [KRAS2]
Conditions: for IC50: curve of first compound; for viability, T/C: stronger effect = lower value
From the text: Multicellular complex tumor spheroid response to RAS pathway inhibitors in combination with a targeted agents in patient-derived cell lines with oncogenic KRAS variants from multiple cancer types
A high-throughput screen of multi-cell type tumor spheroids was designed to identify active combinations of targeted small molecules and KRAS pathway inhibitors. Complex spheroids include a stromal component modeled by human endothelial cells (HUVEC) and fibroblasts modeled by human mesenchymal stem cells (MSCs). The concentration ranges selected for each drug and investigational agent were based upon clinically achievable concentrations if the clinical Cmax of the agent was known.
Compounds. The drugs and investigational agents: BI-3406 (NSC825286), BAY-293 (NSC824723), batoprotafib (TNO155; NSC825523), sotorasib (AMG 510; NSC818433), MRTX1257 (NSC819558), elimusertib (BAY 1895344; NSC800525), molibresib (GSK525762; NSC774829), temuterkib (LY3214996; NSC803410), venetoclax (NSC766270), alisertib (NSC759677), olaparib (NSC753686), talazoparib (NSC767125), erdafitinib (NSC781556), ipatasertib (NSC767898), cabozantinib (NSC761068), nintedanib (NSC756659), abemaciclib (NSC768073), docetaxel (NSC628503), trametinib (NSC758246), and sapanisertib (NSC764658) were obtained from the National Cancer Institute (NCI) Developmental Therapeutics Program Chemical Repository. The FDA-approved anticancer drug set is available from the Developmental Therapeutics Program. […] The stock solutions were prepared in dimethyl sulfoxide (DMSO, Sigma-Aldrich, St. Louis, MO, cat. D2650) at 800-fold the tested concentration and stored at -70 degrees C prior to their use. All drugs and investigational agents were tested over a range starting from a high concentration at or near the clinical Cmax and decreasing in half-log increments. If the clinical Cmax for an agent had not been determined, the highest concentration tested was 10 microM.
Cell Culture. All cells were maintained in an incubator at 37 degrees C and 5% CO2 with 95% humidity. The PDC lines were cultured according to standard operating procedures established by the NCI PDMR (https://pdmr.cancer.gov/sops/default.htm). Briefly, all PDCs were thawed and cultured in Matrigel-coated flasks prepared with a working solution of 1X Ham's F-12 nutrient mix, without supplementation (Invitrogen, Waltham, MA, cat. 11765054), 100 U/mL penicillin-streptomycin (Invitrogen, cat. 15140122), and 2.5% Matrigel (Corning Inc., Corning, NY, cat. 354248) for the first three passages. All PDCs were cultured in complete DMEM/F-12 media containing advanced DMEM/F-12 (Invitrogen, cat. 12634028), 4.9% defined fetal bovine serum, heat inactivated (HyClone Laboratories Inc., Logan, UT, cat. SH30070.03HI), 389 ng/mL hydrocortisone (Sigma-Aldrich, cat. H4001), 9.7 ng/mL human EGF recombinant protein (Invitrogen, cat. PHG0313), 23.4 microg/mL adenine (Sigma-Aldrich, cat. A2786), 97.3 U/mL penicillin-streptomycin (Invitrogen, cat. 15140122), 1.9 mM L-glutamine (Invitrogen, cat. 25030081), and 9.7 microM Y-27632 dihydrochloride (Tocris Bioscience, Bristol, United Kingdom, cat. 1254). The PDCs were cultured in complete DMEM/F12 media without 9.7 microM Y-27632 dihydrochloride for at least two passages prior to the screen. The established cell line HOP-62 was cultured in RPMI 1640 medium, HEPES (Invitrogen, cat. 22400105) with 10% defined fetal bovine serum (HyClone Laboratories Inc., cat. SH30070.03) and 2 mM L-glutamine (Invitrogen, cat. 25030081). The pooled donor HUVEC were cultured in endothelial cell growth medium 2 (PromoCell, Heidelberg, Germany, cat. C-22011) and the hMSC were cultured in mesenchymal stem cell growth medium 2 (PromoCell, cat. C-28009). For all experiments, HUVEC and hMSC were used at passages </=5, while the malignant cell lines were used at passages </=15. […]

[1] = second compound 0.1 µM, first compound 0.01 µM
[2] = second compound 0.1 µM, first compound 0.0316 µM
[3] = second compound 0.1 µM, first compound 0.1 µM
[4] = second compound 0.316 µM, first compound 0.01 µM
[5] = second compound 0.316 µM, first compound 0.0316 µM
[6] = second compound 0.316 µM, first compound 0.1 µM
[7] = second compound 1 µM, first compound 0.01 µM
[8] = second compound 1 µM, first compound 0.0316 µM
[9] = second compound 1 µM, first compound 0.1 µM
[10] = second compound 3.16 µM, first compound 0.01 µM
[11] = second compound 3.16 µM, first compound 0.0316 µM
[12] = second compound 3.16 µM, first compound 0.1 µM
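Also: drug exposure lasted seven days.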
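For viability, T/C in this document: 100% = DMSO vehicle wells and lower means fewer viable cells.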

Q: For `CC(C)n1nc(-c2ccc3oc(N)nc3c2)c2c(N)ncnc21` + CNCc1ccccc1-c1csc(C(C)Nc2nc(C)nc3cc(OC)c(OC)cc23)c1, which IC50 (second compound 0.1 µM) is on record?
A: 77.2 nM

Q: And the IC50 (second compound 0.316 µM)?
A: 41.3 nM

Q: And the IC50 (second compound 1 µM)?
A: 64.8 nM

Q: What about the IC50 (second compound 3.16 µM) of the same compound?
A: < 0.316 nM

Q: What about the IC50 (second compound 10 µM) of the same compound?
A: < 0.316 nM

Q: And the viability, T/C (second compound 0.1 µM, first compound 0.000316 µM)?
A: 88.1%

Q: And the viability, T/C (second compound 0.1 µM, first compound 0.001 µM)?
A: 89.9%

Q: What about the viability, T/C (second compound 0.1 µM, first compound 0.00316 µM) of the same compound?
A: 81.2%

Q: What about the viability, T/C [1] of the same compound?
A: 71.2%

Q: And the viability, T/C [2]?
A: 63.3%

Q: And the viability, T/C [3]?
A: 46.2%

Q: And the viability, T/C (second compound 0.316 µM, first compound 0.000316 µM)?
A: 82.3%

Q: And the viability, T/C (second compound 0.316 µM, first compound 0.001 µM)?
A: 81.1%

Q: And the viability, T/C (second compound 0.316 µM, first compound 0.00316 µM)?
A: 74.6%

Q: And the viability, T/C [4]?
A: 61.1%

Q: And the viability, T/C [5]?
A: 54.3%

Q: And the viability, T/C [6]?
A: 42.1%

Q: And the viability, T/C (second compound 1 µM, first compound 0.000316 µM)?
A: 78.5%

Q: What about the viability, T/C (second compound 1 µM, first compound 0.001 µM) of the same compound?
A: 73%

Q: What about the viability, T/C (second compound 1 µM, first compound 0.00316 µM) of the same compound?
A: 73.6%

Q: And the viability, T/C [7]?
A: 64.2%

Q: And the viability, T/C [8]?
A: 54.6%

Q: What about the viability, T/C [9] of the same compound?
A: 47.2%

Q: What about the viability, T/C (second compound 3.16 µM, first compound 0.000316 µM) of the same compound?
A: 1.65%

Q: What about the viability, T/C (second compound 3.16 µM, first compound 0.001 µM) of the same compound?
A: 1.07%

Q: What about the viability, T/C (second compound 3.16 µM, first compound 0.00316 µM) of the same compound?
A: 1.66%

Q: And the viability, T/C [10]?
A: 1.02%

Q: What about the viability, T/C [11] of the same compound?
A: 1.57%

Q: And the viability, T/C [12]?
A: 1.6%

Q: And the viability, T/C (second compound 10 µM, first compound 0.000316 µM)?
A: 0.75%

Q: What about the viability, T/C (second compound 10 µM, first compound 0.001 µM) of the same compound?
A: 0.17%

Q: What about the viability, T/C (second compound 10 µM, first compound 0.00316 µM) of the same compound?
A: 0.16%

Q: And the viability, T/C (second compound 10 µM, first compound 0.01 µM)?
A: 0.15%

Q: What about the viability, T/C (second compound 10 µM, first compound 0.0316 µM) of the same compound?
A: 0.16%

Q: And the viability, T/C (second compound 10 µM, first compound 0.1 µM)?
A: 0.24%

Q: How did the IC50 (second compound 0.0316 µM) turn out when `CC(=O)OC12COC1CC(O)C1(C)C(=O)C(O)C3=C(C)C(OC(=O)C(O)C(NC(=O)OC(C)(C)C)c4ccccc4)CC(O)(C(OC(=O)c4ccccc4)C21)C3(C)C` (stereo not given) + C=CC(=O)N1CCN(c2nc(OCC3CCCN3C)nc3c2CCN(c2cccc4cccc(C)c24)C3)CC1CC#N was run?
A: > 3160 nM

Q: What about the IC50 (second compound 0.1 µM) of the same compound?
A: > 3160 nM

Q: And the IC50 (second compound 0.316 µM)?
A: > 3160 nM

Q: And the IC50 (second compound 1 µM)?
A: > 3160 nM

Q: What about the IC50 (second compound 3.16 µM) of the same compound?
A: > 3160 nM

Q: And the viability, T/C (second compound 0.0316 µM, first compound 0.01 µM)?
A: 83.9%

Q: What about the viability, T/C (second compound 0.0316 µM, first compound 0.0316 µM) of the same compound?
A: 72.8%

Q: And the viability, T/C (second compound 0.0316 µM, first compound 0.1 µM)?
A: 71.7%

Q: And the viability, T/C (second compound 0.0316 µM, first compound 0.316 µM)?
A: 80.5%

Q: What about the viability, T/C (second compound 0.0316 µM, first compound 1 µM) of the same compound?
A: 93%

Q: What about the viability, T/C (second compound 0.0316 µM, first compound 3.16 µM) of the same compound?
A: 110%

Q: And the viability, T/C [1]?
A: 79.6%

Q: And the viability, T/C [2]?
A: 78.7%

Q: What about the viability, T/C [3] of the same compound?
A: 70.4%

Q: What about the viability, T/C (second compound 0.1 µM, first compound 0.316 µM) of the same compound?
A: 81.7%

Q: What about the viability, T/C (second compound 0.1 µM, first compound 1 µM) of the same compound?
A: 95%

Q: And the viability, T/C (second compound 0.1 µM, first compound 3.16 µM)?
A: 130%

Q: And the viability, T/C [4]?
A: 69.2%

Q: What about the viability, T/C [5] of the same compound?
A: 52.9%

Q: What about the viability, T/C [6] of the same compound?
A: 68.8%

Q: And the viability, T/C (second compound 0.316 µM, first compound 0.316 µM)?
A: 75.1%

Q: And the viability, T/C (second compound 0.316 µM, first compound 1 µM)?
A: 81.3%

Q: What about the viability, T/C (second compound 0.316 µM, first compound 3.16 µM) of the same compound?
A: 87.9%

Q: And the viability, T/C [7]?
A: 71%

Q: And the viability, T/C [8]?
A: 82.2%

Q: And the viability, T/C [9]?
A: 82.7%

Q: And the viability, T/C (second compound 1 µM, first compound 0.316 µM)?
A: 83.3%

Q: What about the viability, T/C (second compound 1 µM, first compound 1 µM) of the same compound?
A: 113%

Q: And the viability, T/C (second compound 1 µM, first compound 3.16 µM)?
A: 112%

Q: What about the viability, T/C [10] of the same compound?
A: 83.2%

Q: What about the viability, T/C [11] of the same compound?
A: 81.4%

Q: What about the viability, T/C [12] of the same compound?
A: 76.8%

Q: What about the viability, T/C (second compound 3.16 µM, first compound 0.316 µM) of the same compound?
A: 74.3%

Q: And the viability, T/C (second compound 3.16 µM, first compound 1 µM)?
A: 102%

Q: What about the viability, T/C (second compound 3.16 µM, first compound 3.16 µM) of the same compound?
A: 107%
